# Source: publication PMC10508484, “Development and application of a PBPK modeling strategy to support antimalarial drug development” (CPT: Pharmacometrics & Systems Pharmacology, 2023)
# “And” between values parts separate entries of the source, which are not always exact repeats. Equal values may be shown once. Read-outs that look alike come from different tables or passages of the source.
# Experiments:
# [1] = PBPK simulation of plasma Cmax and AUC (Simcyp V19); design: species or system human; conditions: single oral dose named in the block
# From the text: (§1) All simulations, including the ones performed for the applications, were run using Version 19 of the Simcyp population-based PBPK simulator (Simcyp (Certara), Sheffield, UK) and unless stated otherwise, input parameters for all drugs are as specified (Supplementary Information Table S1). All simulations were run using ten virtual trials that were matched as closely as possible to the clinical study volunteers in terms of the number of subjects, their age, the proportion of males/females and according to the same study design.
# The available clinical PK data for performance verification of simulations was largely in healthy volunteers of either Caucasian or South-East Asian (Thai or Vietnamese) descent. For Caucasian subjects the default Sim-Healthy Volunteers virtual population was used without modification. […] The case study simulations presented in this paper used the Sim-Healthy Volunteers virtual population.
# [2] = PBPK simulation of drug-drug interactions (Simcyp V19); design: species or system human; conditions: for AUC ratios Sim/Obs: ratio of simulated to clinically observed AUC ratio
# From the text: Here, we provide three example applications where the available PBPK models were used to address questions relating to DDI assessment. […] Additional simulation methods are provided in Appendix S1.
# as §1
# [3] = In vitro flags for victim and perpetrator properties conferring DDI liability; format: in vitro ADME, human; conditions: in vitro flag, mainly based on in vitro determinations
# [4] = Hepatic / HLM intrinsic clearance, enzyme not defined; conditions: for fm additional / undefined metabolism: human
# CYP3A4 = CYP3A4 (Homo sapiens, UniProt P08684)
# Sequence of CYP3A4 (P08684 whole entry): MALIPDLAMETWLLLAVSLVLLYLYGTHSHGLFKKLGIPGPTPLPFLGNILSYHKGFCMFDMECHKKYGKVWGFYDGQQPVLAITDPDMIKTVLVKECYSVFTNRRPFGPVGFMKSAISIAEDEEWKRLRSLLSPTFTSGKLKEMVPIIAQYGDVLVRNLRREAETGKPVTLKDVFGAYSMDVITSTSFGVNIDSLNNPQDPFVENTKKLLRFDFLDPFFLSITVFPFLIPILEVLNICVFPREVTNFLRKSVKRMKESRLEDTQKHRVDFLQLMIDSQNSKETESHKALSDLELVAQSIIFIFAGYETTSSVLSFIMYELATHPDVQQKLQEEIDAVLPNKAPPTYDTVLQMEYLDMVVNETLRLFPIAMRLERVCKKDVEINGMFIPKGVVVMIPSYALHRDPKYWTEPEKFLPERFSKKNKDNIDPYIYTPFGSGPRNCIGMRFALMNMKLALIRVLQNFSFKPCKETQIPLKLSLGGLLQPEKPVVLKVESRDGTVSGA
# From the text: (§2) In nearly all cases the fraction of systemic elimination metabolised by a given enzyme (fm) determined in vitro was unavailable in the literature.
# [5] = cited from earlier work; for Cmax: read-out: Cmax Obs
# [6] = cited from earlier work
# [7] = cited from earlier work; for fu: PBPK input
# [8] = cited from earlier work; for CL PO: clinically observed oral (in vivo) clearance, pyronaridine: blood, ref amodiaquine Winstanley et al., DEAQ Akande et al., 2015 8, Scarsi et al., 2014 35, Tarning et al., 2012 36, Orrell et al., 2008 37, DHA Na-Bangchang et al., 2004 42, lumefantrine Lefevre et al., 2002 52, Hoglund et al., 2015 53, mefloquine Charles et al., 2007 56, pyronaridine Jittama
# [9] = Blood to plasma ratio (B:P); conditions: PBPK input; 0.55 = no uptake into RBC for a haematocrit of 45%
# [10] = lumefantrine: ACD labs value; ref Charman et al., 2020 1; cited from earlier work
# [11] = 2020 1, cited from earlier work
# [12] = measured (0.4 mg/mL protein where stated); ref Charman et al., 2020 1; cited from earlier work
# [13] = Fraction unbound in human liver microsomes (fumic); conditions: extrapolated from value measured at 0.4 mg/mL to 0.1 mg/mL, method of Austin et al., 2002
# [14] = ref Charman et al., 2020 1; cited from earlier work
# Caco-2 cells = conditions: calibrated against propranolol; plasma as medium for atovaquone and piperaquine; ref Charman et al., 2020 1; cited from earlier work
# CYP2C19 = CYP2C19 (Homo sapiens, UniProt P33261); test: Metabolism by CYP2C19 (CLint, fm); format: in vitro ADME
# Sequence of CYP2C19 (P33261 whole entry): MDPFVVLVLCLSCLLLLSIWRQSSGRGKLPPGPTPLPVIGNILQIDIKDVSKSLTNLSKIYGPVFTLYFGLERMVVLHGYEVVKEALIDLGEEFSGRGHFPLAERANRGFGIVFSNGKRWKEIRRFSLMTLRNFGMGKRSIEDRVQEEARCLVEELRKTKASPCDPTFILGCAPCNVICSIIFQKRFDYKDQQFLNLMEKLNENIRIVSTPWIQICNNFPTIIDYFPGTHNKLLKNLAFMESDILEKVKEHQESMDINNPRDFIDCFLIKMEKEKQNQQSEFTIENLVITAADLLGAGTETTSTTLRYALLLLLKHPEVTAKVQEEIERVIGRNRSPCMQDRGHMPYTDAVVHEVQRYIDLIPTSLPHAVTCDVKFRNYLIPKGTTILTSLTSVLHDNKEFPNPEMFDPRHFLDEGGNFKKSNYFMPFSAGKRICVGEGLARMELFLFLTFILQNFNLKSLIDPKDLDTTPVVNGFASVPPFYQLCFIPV
# From the text: as §2
# in vitro = conditions: human, plasma
# [15] = ratio of simulated to clinically observed Cmax ratio, DDI of the respective line of Table S3
# [16] = ref atovaquone Mepron Prescribing Information, 2008, Nixon et al., 2013 13, Rolan et al., 1997 14, azithromycin Foulds et al., 1990 20, chloroquine Ofori-Adjei et al., 1986 27, Walker et al., 1983 28, DHA Batty et al., 2004 41 (healthy volunteers), lumefantrine CDER submission 22-269, proguanil Wattanagoon et al., 1987 63, tafenoquine Dow et al., 2020 84
# [17] = 1987 9, proguanil Jeppesen et al., 1997 34
# [18] = 200 mg SD, 0-inf, ref Wattanagoon et al., 1987 17
# [19] = DDI of the respective line of Table S3
# [20] = from observed differences in metabolite formation, Jeppesen et al., 1997
# [21] = PBPK input, ref amodiaquine, DEAQ Winstanley et al., 1987 9, atovaquone Rolan et al., 1997 14, azithromycin Lalak et al., 1993 23, carboxyprimaquine Mihaly et al., 1985 26, chloroquine Walker et al., 1987 29, DHA EMA Website, 44, doxycycline Raghuram et al., 1982 48, Nguyen et al., 1989 49, mefloquine Schwartz et al., 1982 57, primaquine White, 1985 62, proguanil Jeppesen et al., 1997 34, pyrimeth
# [22] = amodiaquine 600 mg SD (Day 6) + trimethoprim 160 mg QD (7 Days), ref Akande et al., 2015 1
compound,measurement,setting,value
"CCCCN(CCCC)CC(O)c1cc(Cl)cc2c1-c1ccc(Cl)cc1/C2=C/c1ccc(Cl)cc1 (stereo not drawn) [Lumefantrine, lumefantrine]",predicted AUC0-inf as % of the observed value,[1],approximately 66%
same,predicted Cmax as % of the observed value,[1],approximately 62%
same,Cmax ratios Sim/Obs,"[2]; Day 7 concentrations, 480 mg BID (Day 22-24) + rifampicin 600 mg QD (Days 1-46)",0.23
same,Cmax ratios Sim/Obs,[2]; [15],0.61 and 0.92 and 1.08 and 1.06
same,Risk as a perpetrator,[3],CYP2D6 inhibitor
same,Risk as a victim,[3],Substrate of CYP3A4
same,fm additional / undefined metabolism,[4],60%
same,fmCYP3A4,CYP3A4,40%
same,CLint CYP3A4,CYP3A4; microsomes,0.9 µL/min/pmol
same,AUC Obs,"[5]; 480 mg BID (Day 3) PM, 60-324 h, ref Huang et al., 2012 8",418000 ng·h/mL
same,AUC Obs,"[5]; 480 mg BID (Day 3) PM, 62-480 h, ref Lefevre et al., 2002 7",383000 ng·h/mL
same,Cmax Obs,"[5]; 480 mg BID (Day 3) PM, ref Huang et al., 2012 8",11600 ng/mL
same,Cmax Obs,"[5]; 480 mg BID (Day 3) PM, ref Lefevre et al., 2002 7",10000 ng/mL
same,AUC Obs,"[5]; 480 mg SD, 0-264 h, ref Lefevre et al., 2013 6",236000 ng·h/mL
same,AUC Obs,"[5]; 480 mg SD, 0-inf, ref Lefevre et al., 2002 5",207000 ng·h/mL
same,Cmax Obs,"[5]; 480 mg SD, ref Lefevre et al., 2002 5",7910 ng/mL
same,Cmax Obs,"[5]; 480 mg SD, ref Lefevre et al., 2013 6",8920 ng/mL
same,AUC reduction,"[6]; human, in vivo",56%
same,fu,[7]; [16],0.003
same,CL PO,[8]; [17],3.5 L/h
same,B:P,[9],0.55
"CC1(C)N=C(N)N=C(N)N1c1ccc(Cl)cc1 [Cycloguanil, cycloguanil]",Log D pH 7.4,[10],1.1
same,AUC Obs,"[5]; 200 mg QD (Day 14) EM, 0-24 h, ref Helsby et al., 1993 19",3170 ng·h/mL
same,AUC Obs,"[5]; 200 mg QD (Day 14) PM, 0-24 h, ref Helsby et al., 1993 19",1190 ng·h/mL
same,AUC Obs,"[5]; 200 mg SD EM, 0-72 h, ref Helsby et al., 1993 19",2350 ng·h/mL
same,AUC Obs,"[5]; 200 mg SD PM, 0-72 h, ref Helsby et al., 1993 19",983 ng·h/mL
same,AUC Obs,[5]; [18],661 ng·h/mL
same,Cmax Obs,"[5]; 200 mg SD, ref Wattanagoon et al., 1987 17",41 ng/mL
same,fu,"[7]; ref Charman et al., 2020 1",0.75
same,B:P,[11]; ref Charman et al.,0.71
same,fumic,[12],0.72
same,fumic,[13],0.911
"O=C1C(O)=C([C@H]2CC[C@H](c3ccc(Cl)cc3)CC2)C(=O)c2ccccc21 [Atovaquone, atovaquone]",Risk as a perpetrator,[3],BCRP inhibitor
same,Risk as a victim,[3],Cleared by biliary excretion
same,AUC Obs,"[5]; 250 mg QD, 0-24 h, ref Thapar et al., 2002 10",254 µM·h
same,AUC Obs,"[5]; 250 mg SD, 0-inf, ref Thapar et al., 2002 10",295 µM·h
same,AUC Obs,"[5]; 500 mg SD, AUC window Unknown, ref Rolan et al., 1994 9",288000 ng·h/mL
same,Cmax Obs,"[5]; 500 mg SD, ref Rolan et al., 1994 9",4400 ng/mL
same,Cmax,"[5]; 250 mg QD, ref Thapar et al., 2002 10",13.8 µM
same,Cmax,"[5]; 250 mg SD, ref Thapar et al., 2002 10",3.7 µM
same,fu,[7]; [16],0.001
same,pKa(s),[14],4.28
same,Caco-2 (Papp A-B),Caco-2 cells,300 10-6 cm/s
same,CL IV,"[8]; clinically observed, ref atovaquone Lavelle et al., 1994 17, chloroquine Walker et al., 1987 29, Gustafsson et al., 1983 30, doxycycline Raghuram et al., 1982 48, Nguyen et al., 1989 49, primaquine Mihaly et al., 1985 26, quinine White et al., 1983 77, Paintaud et al., 1993 78",0.62 L/h
same,CL renal,[8]; in vivo,0 L/h
same,fe (fraction excreted unchanged in urine),[8]; in vivo,< 0.6%
"[H]/N=C(\N/C(=N/[H])Nc1ccc(Cl)cc1)NC(C)C [Proguanil, proguanil]",AUC ratios Sim/Obs,[2]; [19],1.01 and 0.80
same,Risk as a perpetrator,[3],CYP2D6 inhibitor
same,Risk as a victim,[3],Substrate of CYP2C19 and CYP3A4
same,fm additional / undefined metabolism,[4],25%
same,Additional Undefined metabolism,[4]; retrograde calculations,13.46 µL/min/pmol
same,CLint CYP3A4 formation of cycloguanil,CYP3A4,0.013 µL/min/pmol
same,fmCYP3A4,CYP3A4,3%
same,fmCYP2C19,"CYP2C19; fraction metabolised used in the PBPK model (proguanil: total, all routes)",36%
same,"fmCYP2C19, additional",CYP2C19; [20],9%
same,"fmCYP2C19, formation of CPBG",CYP2C19; [20],8%
same,"fmCYP2C19, formation of cycloguanil",CYP2C19; [20],17%
same,CLint CYP2C19 - additional,CYP2C19; retrograde calculations,1.25 µL/min/pmol
same,CLint CYP2C19-mediated formation of 4-Chlorphenylbiguanide (CPBG),CYP2C19; retrograde calculations,1.07 µL/min/pmol
same,CLint CYP2C19-mediated formation of Cycloguanil,CYP2C19; retrograde calculations from CL PO,2.23 µL/min/pmol
same,Cmax Obs,"[5]; 200 mg QD (Day 14) EM, ref Helsby et al., 1993 19",190 ng/mL
same,Cmax Obs,"[5]; 200 mg QD (Day 14) PM, ref Helsby et al., 1993 19",338 ng/mL
same,AUC Obs,"[5]; 200 mg SD EM, 0-inf, ref Helsby et al., 1990 18",3396 ng·h/mL
same,Cmax Obs,"[5]; 200 mg SD EM, ref Helsby et al., 1993 19",209 ng/mL
same,AUC Obs,"[5]; 200 mg SD PM, 0-inf, ref Helsby et al., 1990 18",6563 ng·h/mL
same,Cmax Obs,"[5]; 200 mg SD PM, ref Helsby et al., 1993 19",273 ng/mL
same,Cmax Obs,"[5]; 200 mg SD, dose corrected to free base for simulations, ref Wattanagoon et al., 1987 17",170 ng/mL
same,AUC Obs,[5]; [18],2975 ng·h/mL
same,Caco-2 (Papp A-B),Caco-2 cells,3.5 10-6 cm/s
same,CL renal,[8]; [21],26.64 L/h
same,CL PO,[8]; [17],86.4 L/h
same,fe (fraction excreted unchanged in urine),[8]; in vivo,36%
same,fumic,[13],0.66
"CCNCc1cc(Nc2ccnc3cc(Cl)ccc23)ccc1O [DEAQ, desethylamodiaquine]",AUC ratios Sim/Obs,[2]; [19],0.89
same,Cmax ratios Sim/Obs,[2]; [15],1.00
same,fraction unbound,in vitro,0.26
same,AUC Obs,"[5]; 600 mg QD (Day 3), 0-96 h, ref Scarsi et al., 2014 1",14571 ng·h/mL
same,Cmax Obs,"[5]; 600 mg QD (Day 3), ref Scarsi et al., 2014 1",495 ng/mL
same,AUC ratio Obs,[6]; [22],0.874
same,Cmax ratio Obs,[6]; [22],0.75
same,Main binding protein,"[7]; ref amodiaquine, DEAQ Hietala, 2009 2, atovaquone Nixon et al., 2013 13, DHA Batty et al., 2004 41, mefloquine, tafenoquine (also AGP) Zsila et al., 2008 54",AGP
same,B:P,"[11]; PBPK input, ref artemether Colussi et al., 1999 11, atovaquone Rolan et al., 1997 14, Beerahee, 1999 16, Charman et al., azithromycin Pene Dumitrescu et al., 2013 21, DEAQ Winstanley et al., 1987 9, proguanil weighted mean Helsby et al., 1993 61, Wattanagoon et al., 1987 63",3
same,CL renal,[8]; [21],1.4 L/h
same,CL PO,[8]; [17],32 L/h
